This is an account of results in publication PMC4757417, “Functional and Structural Analysis of a β-Glucosidase Involved in β-1,2-Glucan Metabolism in Listeria innocua” (PLoS ONE, 2016).

For test [1], the target named is Aspergillus aculeatus BGL1 (AaBGL1). Set-up: method as in PMID 23537284. The note with it: cited from earlier work.
Test [2] concerns the target T1, Lin1840r (Listeria innocua, UniProt Q92AS9). Put plainly: Inhibition kinetics of hydrolytic activity toward pNP-β-Glc. The following applies: substrate pNP-β-Glc. It is filed as biochemical.
For test [3], the target named is T1, Lin1840r. Kind of test: Kinetic analysis of hydrolysis of β-linked gluco-oligosaccharides and pNP-β-Glc by WT Lin1840r. The following applies: for kcat relative to that for Sop2 / kcat relative to those for Sop2 and Lam2 / kcat/Km relative to that for Sop2: WT Lin1840r; for specific activity: Lin1840r, 0.1 mM substrate at 20°C. Type of test: biochemical.
The next test concerns Lin1840r E473A mutant. Kind of test: Hydrolytic activity of E473A mutant toward pNP-β-Glc.
Test [4] relates to Flavobacterium meningosepticum GH3 β-glucosidase (FmBGL). Set-up: method as in PMID 11851422. The note with it: cited from earlier work.
A further test deals with Lin1840r D270A mutant. Kind of test: Hydrolytic activity of D270A mutant toward pNP-β-Glc.
In test [5] the test system is JMB19063 (metagenomic GH3 β-glucosidase from compost). Set-up: method as in PMID 23580647. The note with it: 0.1 mM substrate, Cel2 at 50°C, estimated from the substrate consumption; cited from earlier work.

Like-named read-outs stand apart in the source and are kept apart here.

T1 sequence (Q92AS9 entry or part of it): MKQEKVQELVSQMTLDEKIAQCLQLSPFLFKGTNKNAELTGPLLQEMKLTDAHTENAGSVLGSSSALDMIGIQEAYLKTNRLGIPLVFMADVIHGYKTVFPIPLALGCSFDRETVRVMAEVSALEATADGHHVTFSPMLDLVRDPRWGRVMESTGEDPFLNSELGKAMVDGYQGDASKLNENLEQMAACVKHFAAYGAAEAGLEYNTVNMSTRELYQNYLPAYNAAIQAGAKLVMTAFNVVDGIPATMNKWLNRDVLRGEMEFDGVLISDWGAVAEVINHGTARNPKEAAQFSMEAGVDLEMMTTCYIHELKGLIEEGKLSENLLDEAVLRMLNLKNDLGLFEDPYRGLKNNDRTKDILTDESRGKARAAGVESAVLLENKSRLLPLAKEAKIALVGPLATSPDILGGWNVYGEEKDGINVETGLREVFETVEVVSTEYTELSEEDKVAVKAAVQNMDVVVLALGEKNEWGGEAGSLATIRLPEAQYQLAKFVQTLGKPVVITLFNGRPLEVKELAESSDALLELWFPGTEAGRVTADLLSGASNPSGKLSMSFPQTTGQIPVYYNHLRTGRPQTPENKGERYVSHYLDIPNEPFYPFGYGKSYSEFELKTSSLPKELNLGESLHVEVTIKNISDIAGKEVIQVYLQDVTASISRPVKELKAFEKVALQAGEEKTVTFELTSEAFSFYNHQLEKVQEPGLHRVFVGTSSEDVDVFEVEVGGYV

In the case of `OC[C@H]1NC[C@H](O)[C@@H](O)[C@@H]1O` [DNJ, 1-deoxynojirimycin], the values for the Ki (in test [1]; at Lin1840r [2] (Ki)) were 2.4 µM and 290 µM, respectively.

For `OC[C@H]1CNC[C@@H](O)[C@@H]1O` [IFG, isofagomine D-tartrate], the Ki in test [1] is 14 µM; on Lin1840r [2] (read-out: Ki), 4.1 µM.

As to `OC[C@H]1O[C@@H](O[C@H]2[C@H](O[C@H]3[C@H](O[C@H]4C(O)O[C@H](CO)[C@@H](O)[C@@H]4O)O[C@H](CO)[C@@H](O)[C@@H]3O)O[C@H](CO)[C@@H](O)[C@@H]2O)[C@H](O)[C@@H](O)[C@@H]1O` (stereo partly shown) [Sop4], the “kcat relative to that for Sop2” value at Lin1840r [3] was “less than one-tenth”.

For the compound `OC[C@H]1O[C@@H](O[C@H]2[C@H](O[C@H]3[C@H](O[C@H]4[C@H](O[C@H]5C(O)O[C@H](CO)[C@@H](O)[C@@H]5O)O[C@H](CO)[C@@H](O)[C@@H]4O)O[C@H](CO)[C@@H](O)[C@@H]3O)O[C@H](CO)[C@@H](O)[C@@H]2O)[C@H](O)[C@@H](O)[C@@H]1O` (stereo partly shown) [Sop5], at Lin1840r [3], the “kcat relative to that for Sop2” value is recorded as “less than one-tenth”.

Turning to `O=[N+]([O-])c1ccc(O[C@@H]2O[C@H](CO)[C@@H](O)[C@H](O)[C@H]2O)cc1` [pNP-β-Glc, p-nitrophenyl-β-D-glucopyranoside], the values for the specific activity (at Lin1840r [3]; in test [5]) were 1.12 U/mg and 11.8 U/mg, respectively. For the same compound, the hydrolytic activity result in the test on Lin1840r E473A mutant and in the test with Lin1840r D270A mutant was “no detectable hydrolytic activity” each time. The Michaelis-Menten constant (Km) in test [4] was 490 µM. The turnover number (kcat) in test [4] is 39.1 s⁻¹.

Turning to cellobiose [Cel2], at Lin1840r [3], the specific activity is listed as 8.9 × 10^−4 U/mg; the “kcat relative to those for Sop2 and Lam2” value is reported as “less than 1%”; the “kcat/Km relative to that for Sop2” value is “less than 0.05%”. In test [4] (judged from preliminary results), the “activity lower than toward pNP-β-Glc” value is given as “at least 100 times”. In addition, in test [5], the specific activity was 0.077 U/mg.

For the compound gentiobiose [Gen2], at Lin1840r [3], the “kcat relative to those for Sop2 and Lam2” value is “less than 1%”; the “kcat/Km relative to that for Sop2” value was “less than 0.05%”.

Usually Ki stands for a dissociation constant, usually derived from enzyme kinetics or from competition with a known ligand. A word on the Km: it is the concentration of substrate that gives half-maximal velocity. By kcat is commonly meant the maximal rate divided by the concentration of active sites.
